From patent US12091402B2 (Avilar Therapeutics, Inc., priority 2021, dated 2024)
pEC50, pKd: −log10 of the molar value. Read-outs that look alike come from different tables or passages of the source.

Columns and labels:
[1] = system: HepG2 cells; assay: Cellular uptake assay of AF488-labeled antibody (HepG2); format: cell-based; conditions: for EC50: Homo sapiens, HepG2, 6 h, read-out: Uptake Assay EC50 (nM); for pEC50: HepG2 cells
Summary of the method: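 HepG2 cells given 100 nM AF488-labeled human IgG or DNP antibody plus serial dilutions of matching degrader (0.1% DMSO final), 6 h at 37° C. Methanol-fixed, DAPI-stained and imaged by high-content analysis. Value is the fraction of AF488-positive cells over total DAPI-counted cells.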

[2] = target: T1, ASGPR (Homo sapiens, UniProt P07306); assay: Affinity to ASGPR by surface plasmon resonance (SPR)
T1 sequence (P07306 1-291): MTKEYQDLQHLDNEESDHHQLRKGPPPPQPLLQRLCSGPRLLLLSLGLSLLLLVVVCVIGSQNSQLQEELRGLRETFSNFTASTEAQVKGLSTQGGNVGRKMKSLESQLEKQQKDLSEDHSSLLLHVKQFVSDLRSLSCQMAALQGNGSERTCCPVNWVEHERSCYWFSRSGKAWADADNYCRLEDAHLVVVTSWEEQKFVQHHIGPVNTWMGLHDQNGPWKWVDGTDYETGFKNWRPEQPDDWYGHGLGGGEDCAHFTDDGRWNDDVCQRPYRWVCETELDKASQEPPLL
Description: Biotinylated ASGPR (20 μg/ml) was immobilized on SA sensor chips (GE Healthcare) at flow rate of 5 μl/min for 90 sec reaching an immobilization level ranging from 500-3000 resonance units (RU). The running buffer was 50 mM HEPES, pH7.5, 150 mM NaCl, 50 mM CaCl2), 0.01% P20, 3% DMSO. The concentration of compounds vary from 2 mM to 5 nM depending on Kd values. The compounds are diluted 2 or 3-fold with 8 concentration points. Solutions containing serially diluted compounds are injected at a flow rate of 40 μL/min for 150-300 sec followed by a 90-300 sec dissociation phase for each concentration. The surface was regenerated using 50 mM HEPES, pH 7.5, 150 mM NaCl, 5 mM EDTA, 0.01% P20, 3% DMSO.
Data was processed using the analysis software in Biacore 8K to perform background subtraction, double referencing, and solvent correction. Values of affinity expressed as the dissociation constants (Kd) were determined by fitting the steady state binding responses (RUs) as a function of the concentration ([Compound]) using the following equation: RU=RUmax/(KD+[Compound]), where RU max is the calculated maximal response. Where appropriate double-referenced data were fit to using a 1:1 binding model for kinetic analysis.

[3] = target: T2, ASGPR receptor on the cell surface (HepG2 cells) (Homo sapiens, UniProt P07306); assay: Ternary complex formation assay (flow cytometry, HepG2); format: cell-based; conditions: for EC50: Ternary Complex EC50 (nM)
T2 construct: host or cells: HepG2
T2 sequence (P07306 1-291): T1 sequence (P07306 1-291)
T2 sequence (P07307 1-311 partner): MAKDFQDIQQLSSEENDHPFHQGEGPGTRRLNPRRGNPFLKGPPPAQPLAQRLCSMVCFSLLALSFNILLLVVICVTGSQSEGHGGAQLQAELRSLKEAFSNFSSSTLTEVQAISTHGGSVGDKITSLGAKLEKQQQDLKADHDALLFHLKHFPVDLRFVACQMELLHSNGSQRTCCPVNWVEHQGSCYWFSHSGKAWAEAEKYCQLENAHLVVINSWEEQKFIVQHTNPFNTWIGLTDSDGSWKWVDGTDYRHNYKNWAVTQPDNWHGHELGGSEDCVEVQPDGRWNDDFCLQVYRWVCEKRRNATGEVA
Excerpt: The ternary complex formation assay is designed to identify the concentration of Degrader required to form a complex between the degrader, a constant concentration of fluorescently-labeled antibody and the ASGPR receptor on the cell surface. The peak mean fluorescence intensity (MFI) occurs at the optimal degrader concentration for ternary complex formation. Sub-optimal concentrations of degrader (too much or too little) results in fewer complexes formed and a reduced […].
Human IgG (Sigma-Aldrich, 14506) was covalently labeled with Alexa Fluor 488 using the Alexa Fluor™ 488 Protein Labeling Kit (Thermo Fisher, A10235) following the manufacturer's instructions. HepG2 cells (ATCC, HIB-8065) were cultured to about 70% confluence and harvested by trypsinization. Single cell suspensions of HepG2 cells were plated in 96 well plates at 1×10^5 cells/well in cell culture media (DMEM supplemented with […]) and placed at 4° C. For studies using human IgG, cells were incubated with 100 nM AF488-labeled anti-human IgG and serial dilutions of IgG-based degrader for 1 hour at 4° C. For studies using DNP, cells were incubated with 100 nM AF488-labeled polyclonal rabbit anti-dinitrophenyl (DNP) antibodies (ThermoFisher) and serial dilutions of DNP-based degrader for 1 hour at 4° C. After washing once with ice-cold PBS containing 0.1% BSA and 0.1% sodium azide, cells were resuspended in 150 uL PBS+0.1% BSA and cell-associated AF488 fluorescence was measured by flow cytometry using the iQue® Screener PLUS Flow Cytometer (IntelliCyt).

[4] = HepG2 cells, 100 nM AF488-labeled antibody, 1 hour at 4° C., class symbols
[5] = 100 nM AF488-labeled antibody, 37° C. for 6 hours, class symbols, read-out: Uptake Assay EC50
[6] = HepG2 cells, 100 nM AF488-labeled antibody, 1 hour at 4° C., class symbols, read-out: Ternary Complex EC50

Structure (SMILES)	EC50 [1]	pKd [2]	EC50 [3, 4]	pEC50 ([1]; read-out: Uptake EC50)	pEC50 [3]	pEC50 [1, 5]	other results
O=[N+]([O-])c1ccc(NCCOCCOCCOCCOC[C@@]23CO[C@@H](O2)[C@H](Nc2nc(Cl)ns2)[C@@H](O)[C@H]3O)c([N+](=O)[O-])c1 [Compound 27, (1S,2R,3R,4R,5S)-4-((3-chloro-1,2,4-thiadiazol-5-yl)amino)-1-(13-((2,4-dinitrophenyl)amino)-2,5,8,11-tetraoxatridecyl)-6,8-dioxabicyclo[3.2.1]octane-2,3-diol]	< 100 nM	> 7.00	< 100 nM				
CC(C)C[C@@H]1NC(=O)[C@H](Cc2c[nH]cn2)NC(=O)[C@H](Cc2c[nH]c3ccccc23)NC(=O)[C@H](C)NC(=O)[C@@H](NC(=O)[C@H](CC(=O)O)NC(=O)CCOCCOCCOCCOCCNC(=O)CCCc2cn(CCCCCC(=O)NC(COCCC(=O)NCCOCCOCCOCCOC[C@H]3OC[C@H](Nc4nccc(C(F)(F)F)n4)C[C@H]3O)COCCC(=O)NCCOCCOCCOCCOC[C@H]3OC[C@H](Nc4nccc(C(F)(F)F)n4)C[C@H]3O)nn2)CSSC[C@@H](C(=O)N[C@H](C(N)=O)[C@@H](C)O)NC(=O)[C@H](Cc2c[nH]c3ccccc23)NC(=O)[C@H](C(C)C)NC(=O)[C@H](CC(C)C)NC(=O)[C@H](CCC(=O)O)NC(=O)CNC1=O [Compound 88]		< 6.00		< 6.00	< 6.00		
O=C(CCOCC(COCCC(=O)NCCOCCOCCOCCOC[C@@]12CO[C@@H](O1)[C@H](Nc1nc(Cl)ns1)[C@@H](O)[C@H]2O)NC(=O)COCCOCCOCCNc1ccc([N+](=O)[O-])cc1[N+](=O)[O-])NCCOCCOCCOCCOC[C@@]12CO[C@@H](O1)[C@H](Nc1nc(Cl)ns1)[C@@H](O)[C@H]2O [Compound 30, 3,3′-((2-(2-(2-(2-(2-((2,4-dinitrophenyl)amino)ethoxy)ethoxy)ethoxy)acetamido)propane-1,3-diyl)bis(oxy))bis(N-(1-((1S,2R,3R,4R,5S)-4-((3-chloro-1,2,4-thiadiazol-5-yl)amino)-2,3-dihydroxy-6,8-dioxabicyclo[3.2.1]octan-1-yl)-2,5,8,11-tetraoxatridecan-13-yl)propanamide)]	< 100 nM	> 7.00	< 100 nM				
CC(C)C[C@@H]1NC(=O)[C@H](Cc2c[nH]cn2)NC(=O)[C@H](Cc2c[nH]c3ccccc23)NC(=O)[C@H](C)NC(=O)[C@@H]2CSSC[C@H](NC(=O)[C@H](Cc3c[nH]c4ccccc34)NC(=O)[C@H](C(C)C)NC(=O)[C@H](CC(C)C)NC(=O)[C@H](CCC(=O)O)NC(=O)CNC1=O)C(=O)N[C@@H]([C@@H](C)O)C(=O)N1CCC[C@@H]1C(=O)N1C[C@@H](NC(=O)CNC(COCCC(=O)NCCOCCOCCOCCO[C@@H]3O[C@H](CO)[C@H](O)[C@H](O)[C@H]3Nc3cncc(C(F)(F)F)n3)COCCC(=O)NCCOCCOCCOCCO[C@@H]3O[C@H](CO)[C@H](O)[C@H](O)[C@H]3Nc3cncc(C(F)(F)F)n3)C[C@H]1C(=O)N[C@@H](CC(=O)O)C(=O)N2 [Compound 71]		> 7.00		> 7.00	> 7.00		
CC(C)C[C@@H]1NC(=O)[C@H](Cc2c[nH]cn2)NC(=O)[C@H](Cc2c[nH]c3ccccc23)NC(=O)[C@H](C)NC(=O)[C@@H]2CSSC[C@H](NC(=O)[C@H](Cc3c[nH]c4ccccc34)NC(=O)[C@H](C(C)C)NC(=O)[C@H](CC(C)C)NC(=O)[C@H](CCC(=O)O)NC(=O)CNC1=O)C(=O)N[C@@H]([C@@H](C)O)C(=O)N1CCC[C@@H]1C(=O)N1C[C@@H](NC(=O)COCCOCCOCC(=O)NC(COCCC(=O)NCCOCCOCCOCCOC[C@H]3OC[C@H](Nc4nccc(C(F)(F)F)n4)[C@@H](O)[C@H]3O)COCCC(=O)NCCOCCOCCOCCOC[C@H]3OC[C@H](Nc4nccc(C(F)(F)F)n4)[C@@H](O)[C@H]3O)C[C@H]1C(=O)N[C@@H](CC(=O)O)C(=O)N2 [Compound 38]		> 7.00				> 7.00	pEC50 [3, 6]: > 7.00
CC(C)C[C@@H]1NC(=O)[C@H](Cc2c[nH]cn2)NC(=O)[C@H](Cc2c[nH]c3ccccc23)NC(=O)[C@H](C)NC(=O)[C@@H]2CSSC[C@H](NC(=O)[C@H](Cc3c[nH]c4ccccc34)NC(=O)[C@H](C(C)C)NC(=O)[C@H](CC(C)C)NC(=O)[C@H](CCC(=O)O)NC(=O)CNC1=O)C(=O)N[C@@H]([C@@H](C)O)C(=O)N1CCC[C@@H]1C(=O)N1C[C@@H](NC(=O)CNC(COCCC(=O)NCCOCCOCCOCCOC[C@@]34CO[C@@H](O3)[C@H](Nc3cncc(C(F)(F)F)n3)[C@@H](O)[C@H]4O)COCCC(=O)NCCOCCOCCOCCOC[C@@]34CO[C@@H](O3)[C@H](Nc3cncc(C(F)(F)F)n3)[C@@H](O)[C@H]4O)C[C@H]1C(=O)N[C@@H](CC(=O)O)C(=O)N2 [Compound 73]				6.00 to 6.30	> 7.00		
CC(C)C[C@@H]1NC(=O)[C@H](Cc2c[nH]cn2)NC(=O)[C@H](Cc2c[nH]c3ccccc23)NC(=O)[C@H](C)NC(=O)[C@@H](NC(=O)[C@@H](N)CC(=O)O)CSSC[C@@H](C(=O)N[C@H](C(N)=O)[C@@H](C)O)NC(=O)[C@H](Cc2c[nH]c3ccccc23)NC(=O)[C@H](C(C)C)NC(=O)[C@H](CC(C)C)NC(=O)[C@H](CCC(=O)NCCOCCOCCOCCOCCNC(=O)CCCc2cn(CCCCCC(=O)NC(COCCC(=O)NCCOCCOCCOCCOC[C@@]34CO[C@@H](O3)[C@H](Nc3nc(Cl)ns3)[C@@H](O)[C@H]4O)COCCC(=O)NCCOCCOCCOCCOC[C@@]34CO[C@@H](O3)[C@H](Nc3nc(Cl)ns3)[C@@H](O)[C@H]4O)nn2)NC(=O)CNC1=O [Compound 3]				> 7.00	> 7.00	6.00 to 6.30	pEC50 ([3]; read-out: Ternary Complex EC50): > 7.00
CC(C)C[C@@H]1NC(=O)[C@H](Cc2c[nH]cn2)NC(=O)[C@H](Cc2c[nH]c3ccccc23)NC(=O)[C@H](C)NC(=O)[C@@H]2CSSC[C@H](NC(=O)[C@H](Cc3c[nH]c4ccccc34)NC(=O)[C@H](C(C)C)NC(=O)[C@H](CC(C)C)NC(=O)[C@H](CCC(=O)O)NC(=O)CNC1=O)C(=O)N[C@@H]([C@@H](C)O)C(=O)N1CCC[C@@H]1C(=O)N1C[C@@H](NC(=O)COCC(=O)NC(COCCC(=O)NCCOCCOCCOCCOC[C@H]3OC[C@H](Nc4cncc(C(F)(F)F)n4)[C@@H](O)[C@H]3O)COCCC(=O)NCCOCCOCCOCCOC[C@H]3OC[C@H](Nc4cncc(C(F)(F)F)n4)[C@@H](O)[C@H]3O)C[C@H]1C(=O)N[C@@H](CC(=O)O)C(=O)N2 [Compound 43]					> 7.00	> 7.00	
O=[N+]([O-])c1ccc(NCCOCCOCCOCCOCCOCCOCCOC[C@@]23CO[C@@H](O2)[C@H](Nc2nc(Cl)ns2)[C@@H](O)[C@H]3O)c([N+](=O)[O-])c1 [Compound 26, (1S,2R,3R,4R,5S)-4-((3-chloro-1,2,4-thiadiazol-5-yl)amino)-1-(22-((2,4-dinitrophenyl)amino)-2,5,8,11,14,17,20-heptaoxadocosyl)-6,8-dioxabicyclo[3.2.1]octane-2,3-diol]	< 100 nM		< 100 nM				
CC(C)C[C@@H]1NC(=O)[C@H](Cc2cnc[nH]2)NC(=O)[C@H](Cc2c[nH]c3ccccc23)NC(=O)[C@H](C)NC(=O)[C@@H]2CSSC[C@H](NC(=O)[C@H](Cc3c[nH]c4ccccc34)NC(=O)[C@H](C(C)C)NC(=O)[C@H](CC(C)C)NC(=O)[C@H](CCC(=O)O)NC(=O)CNC1=O)C(=O)N[C@@H]([C@@H](C)O)C(=O)N1CCC[C@@H]1C(=O)N1C[C@@H](NC(=O)COCCOCC(=O)NC(COCCC(=O)NCCOCCOCCOCCOC[C@H]3OC[C@H](Nc4nccc(C(F)(F)F)n4)[C@@H](O)[C@H]3O)COCCC(=O)NCCOCCOCCOCCOC[C@H]3OC[C@H](Nc4nccc(C(F)(F)F)n4)[C@@H](O)[C@H]3O)C[C@H]1C(=O)N[C@@H](CC(=O)O)C(=O)N2 [Compound 47]						> 7.00	pEC50 [3, 6]: > 7.00
